Data as given in paper PMC8608967, “KDS2010, a Newly Developed Reversible MAO-B Inhibitor, as an Effective Therapeutic Candidate for Parkinson’s Disease” (Neurotherapeutics, 2021).

Key:
[1] = system: MPTP-induced PD mouse model; assay: MPTP mouse model: TH (DAB) and Nissl staining of SNpc and striatum; details: MPTP mice; long-term treatment, 29 days before MPTP and one more day after, 10 mg/kg/day oral; 10 mg/kg/day
Procedure: (§1) Group allocation and outcome assessment, but not the conduct of experiments and data analysis, were performed in a blinded manner. Throughout the study, confounders were not controlled. An acclimation period of 7 days was allowed for animals to stabilize in a new environment before model induction. […] Treatment drugs were dissolved in 100 μL of water and total dose (in mg) was calculated according to individual body weight (in kg). […] An experiment was halted if body weight decreased by 20% or more after MPTP or 6-hydroxydopamine (6-OHDA) treatment.
The MPTP model was established using the acute regimen of four intraperitoneal (i.p.) injections of MPTP-HCl (M0896, Sigma Aldrich, 2 mg/mL in saline, 20 mg/kg for one injection) at 2-h intervals. All MPTP use and safety precautions were strictly followed as described [18].
Coronal sections for striatum and SNpc were prepared at 30-μm thickness and immunostained using a DAB staining kit (TL-060-QHD, Thermo, MA, USA). […] After washing in PBS 3 times, sections were incubated in Primary Antibody Amplifier Quanto (TA-060-QPB, Thermo) for 5 min, washed again in PBS, incubated in HRP Polymer Quanto for 1 h, washed 4 times in PBS, and dipped for 30 s in a 1:10 mixture of DAB + chromogen and DAB + substrate buffer (K3468, Dako, Denmark). Finally, sections were washed, immersed in mounting medium, and dried.
Every 6th section including the SN was stained with anti-TH and the number of TH-positive neurons counted under low magnification (× 10) from the rostral tip of the SNpc to the caudal end of the substantia nigra pars reticulate (SNpr). […] The total number of neurons per section was estimated according to the optical fractionator formula. The total number of SNpc neurons in a hemisphere was then obtained by multiplying the number counted using Stereo Investigator 11 by the slice interval (six).
Other 30-μm-thick coronal sections from the SNpc were Nissl stained to assess viable cell number. Briefly, slices were stained with 0.1% cresyl violet solution for 3 min, rinsed with distilled water, and placed in a chamber filled with 70% ethanol for 1 min. […] A series of bright field images were obtained using an Olympus microscope. The slices were classified according to AP coordinates and Nissl-positive neurons counted using the counting tool of ImageJ (NIH, MD, USA).

[2] = system: 6-OHDA model rats; assay: 6-OHDA rat model: stepping test, rotarod test, TH; details: 6-OHDA rats; 10 mg/kg/day for 15 days starting 17 days post-6-OHDA
Procedure: as §1
Finally, the 6-OHDA model was prepared as previously described [21]. Under general anesthesia, all rats received unilateral injections of 8 μg 6-OHDA (Sigma Aldrich) in 4 μL saline/0.1% ascorbic acid into the right medial forebrain bundle (AP − 2.2 mm and L + 1.5 mm relative to the bregma, V − 8.0 mm from the dura) [19], with the tooth bar set at + 4.5 mm.
Motor deficits of 6-OHDA and A53T mutant α-synuclein model rats were assessed as previously described with slight modifications [27]. Briefly, both hind limbs and one forelimb were firmly fixed in the two hands of the experimenter, and the rat was lowered over a treadmill moving at rate of 18 cm/s such that the body remained stationary while the free forelimb was allowed to spontaneously touch the moving treadmill track for 10 s. All experimental sessions were video recorded to count the number of adjusting steps taken in the backward direction. The number of adjusting steps was averaged across four trials in each session.
In addition, impaired motor coordination of 6-OHDA model rats was examined using the rotarod test as previously described with slight modifications [28]. […] Before the first rotarod test, all rats were pre-trained until riding time reached 60 s at 10 rpm (B.S Technolab, Seoul, Korea). Each session consisted of two trials, and riding time was averaged to obtain pre-6-OHDA, 0d, 7d, and 15d results.

[3] = system: MPTP-induced PD mouse model; assay: MPTP mouse model: vertical grid test and coat hanger test; assay type: in vivo; details: MPTP mice; long-term (30-day) treatment, 10 mg/kg/day oral
Procedure: Group allocation and outcome assessment, but not the conduct of experiments and data analysis, were performed in a blinded manner. Throughout the study, confounders were not controlled. An acclimation period of 7 days was allowed for animals to stabilize in a new environment before model induction. […] Treatment drugs were dissolved in 100 μL of water and total dose (in mg) was calculated according to individual body weight (in kg).
The MPTP model was established using the acute regimen of four intraperitoneal (i.p.) injections of MPTP-HCl (M0896, Sigma Aldrich, 2 mg/mL in saline, 20 mg/kg for one injection) at 2-h intervals.
Motor deficits of the MPTP-induced PD mouse model were assessed using the vertical grid test as described in the previous study [23]. Briefly, after 2 days of habituation to the testing apparatus, individual mice were gently placed 3 cm from the top, facing upward, and allowed to turn around and climb down. We also performed a coat hanger test as described [24–26]. Briefly, a mouse was gently hung on the middle of a coat hanger and allowed to ascend to the top. Performance was graded as follows: 0, falling off the hanger within 20 s; 1, moving to the side-bar of the hanger; 2, reaching the side-bar of the hanger; 3, climbing the side-bar of the hanger; 4, moving to the top of the hanger; 5, climbing and reaching the safe zone. The test was performed twice and each trial lasted a maximum of 3 min.

[4] = H2O2 scavenging capacity test (Amplex red/HRP); details: 10 min incubation with H2O2 at RT
Procedure: To determine the H2O2 scavenging capacity of the test compound, H2O2 concentration was measured using the modified Amplex red/horseradish peroxidase (HRP) detection method as described previously. Briefly, a H2O2 solution was incubated with the test compound for 10 min at room temperature (RT), and then the reaction solution containing 20 mM Amplex red and 200 U/mL HRP was added. The absorbance was measured at 570 nm using a microplate reader. The H2O2 scavenging capacities were compared to a blank negative control and to the known H2O2 scavenger epigallocatechin gallate (EGCG) as a positive control.

| Compound | loss of TH-positive cells in the SNpc [1] | stepping test: stepping behavior deficit of the contralateral forepaw [2] | vertical grid test: time to turn [3] | vertical grid test: total time [3] | H2O2 scavenging effect [4] |
| --- | --- | --- | --- | --- | --- |
| C#CCN(C)[C@H](C)Cc1ccccc1 [selegiline, reference compound] | non-significant increasing tendency | did not improve | reduced | reduced | – |
| epigallocatechin-3-gallate [EGCG, reference compound] | – | – | – | – | dose-dependent effect of H2O2 scavenging |
